Test system: Transport facilitation protein genes
Assay: DNA chip mRNA expression in yeast, transport facilitation protein genes (Table 5)
Format: cell-based, Saccharomyces cerevisiae S288C
Summary of the method: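 S. cerevisiae S288C grown at 25° C. in YPD to log phase, then exposed 2 h to a toxicant at a growth-inhibiting, non-lethal concentration; untreated cells as control. Poly(A) mRNA reverse-transcribed with Cy3-dUTP or Cy5-dUTP, hybridized >12 h at 65° C. to whole-genome yeast DNA chip; value = fluorescence ratio treated/untreated.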

Which results are given for CCCCCCCCCCCCOS(=O)(=O)[O-].[Na+] [(18), sodium lauryl sulfate]?
The level of expressed mRNA in the presence of chemical substance/The level of expressed mRNA in the absence of chemical substance (yeast gene YBL030C): 1.1; The level of expressed mRNA in the presence of chemical substance/The level of expressed mRNA in the absence of chemical substance (yeast gene YBL099W): 1.2; The level of expressed mRNA in the presence of chemical substance/The level of expressed mRNA in the absence of chemical substance (yeast gene YBR052C): 3.1; The level of expressed mRNA in the presence of chemical substance/The level of expressed mRNA in the absence of chemical substance (yeast gene YBR068C): 1.3; The level of expressed mRNA in the presence of chemical substance/The level of expressed mRNA in the absence of chemical substance (yeast gene YBR127C): 1.0; The level of expressed mRNA in the presence of chemical substance/The level of expressed mRNA in the absence of chemical substance (yeast gene YBR132C): 1.3; The level of expressed mRNA in the presence of chemical substance/The level of expressed mRNA in the absence of chemical substance (yeast gene YBR207W): 1.4; The level of expressed mRNA in the presence of chemical substance/The level of expressed mRNA in the absence of chemical substance (yeast gene YBR293W): 0.9; The level of expressed mRNA in the presence of chemical substance/The level of expressed mRNA in the absence of chemical substance (yeast gene YBR294W): 0.9; The level of expressed mRNA in the presence of chemical substance/The level of expressed mRNA in the absence of chemical substance (yeast gene YBR295W): 1.2; The level of expressed mRNA in the presence of chemical substance/The level of expressed mRNA in the absence of chemical substance (yeast gene YBR298C): 0.8; The level of expressed mRNA in the presence of chemical substance/The level of expressed mRNA in the absence of chemical substance (yeast gene YCL025C): 0.6; The level of expressed mRNA in the presence of chemical substance/The level of expressed mRNA in the absence of chemical substance (yeast gene YCL038C): 1.5; The level of expressed mRNA in the presence of chemical substance/The level of expressed mRNA in the absence of chemical substance (yeast gene YCR024C-A): 1.4; The level of expressed mRNA in the presence of chemical substance/The level of expressed mRNA in the absence of chemical substance (yeast gene YCR037C): 0.9; The level of expressed mRNA in the presence of chemical substance/The level of expressed mRNA in the absence of chemical substance (yeast gene YCR098C): 1.6; The level of expressed mRNA in the presence of chemical substance/The level of expressed mRNA in the absence of chemical substance (yeast gene YDL128W): 1.0; The level of expressed mRNA in the presence of chemical substance/The level of expressed mRNA in the absence of chemical substance (yeast gene YDL198C): 1.1; The level of expressed mRNA in the presence of chemical substance/The level of expressed mRNA in the absence of chemical substance (yeast gene YDL210W): 0.9; The level of expressed mRNA in the presence of chemical substance/The level of expressed mRNA in the absence of chemical substance (yeast gene YDL245C): 1.1; The level of expressed mRNA in the presence of chemical substance/The level of expressed mRNA in the absence of chemical substance (yeast gene YDR038C): 1.5; The level of expressed mRNA in the presence of chemical substance/The level of expressed mRNA in the absence of chemical substance (yeast gene YDR039C): 1.6; The level of expressed mRNA in the presence of chemical substance/The level of expressed mRNA in the absence of chemical substance (yeast gene YDR086C): 1.9; The level of expressed mRNA in the presence of chemical substance/The level of expressed mRNA in the absence of chemical substance (yeast gene YDR270W): 0.7; The level of expressed mRNA in the presence of chemical substance/The level of expressed mRNA in the absence of chemical substance (yeast gene YDR298C): 1.6; The level of expressed mRNA in the presence of chemical substance/The level of expressed mRNA in the absence of chemical substance (yeast gene YDR342C): 2.2; The level of expressed mRNA in the presence of chemical substance/The level of expressed mRNA in the absence of chemical substance (yeast gene YDR343C): 2.3; The level of expressed mRNA in the presence of chemical substance/The level of expressed mRNA in the absence of chemical substance (yeast gene YDR345C): 1.8; The level of expressed mRNA in the presence of chemical substance/The level of expressed mRNA in the absence of chemical substance (yeast gene YDR387C): 1.1; The level of expressed mRNA in the presence of chemical substance/The level of expressed mRNA in the absence of chemical substance (yeast gene YDR497C): 1.8; The level of expressed mRNA in the presence of chemical substance/The level of expressed mRNA in the absence of chemical substance (yeast gene YEL027W): 1.4; The level of expressed mRNA in the presence of chemical substance/The level of expressed mRNA in the absence of chemical substance (yeast gene YEL063C): 0.7; The level of expressed mRNA in the presence of chemical substance/The level of expressed mRNA in the absence of chemical substance (yeast gene YEL065W): 0.6; The level of expressed mRNA in the presence of chemical substance/The level of expressed mRNA in the absence of chemical substance (yeast gene YER053C): 2.3; The level of expressed mRNA in the presence of chemical substance/The level of expressed mRNA in the absence of chemical substance (yeast gene YFL011W): 1.0; The level of expressed mRNA in the presence of chemical substance/The level of expressed mRNA in the absence of chemical substance (yeast gene YFL041W): 0.9; The level of expressed mRNA in the presence of chemical substance/The level of expressed mRNA in the absence of chemical substance (yeast gene YFL050C): 1.0; The level of expressed mRNA in the presence of chemical substance/The level of expressed mRNA in the absence of chemical substance (yeast gene YFL054C): 1.4; The level of expressed mRNA in the presence of chemical substance/The level of expressed mRNA in the absence of chemical substance (yeast gene YGL006W): 4.1; The level of expressed mRNA in the presence of chemical substance/The level of expressed mRNA in the absence of chemical substance (yeast gene YGL008C): 1.0; The level of expressed mRNA in the presence of chemical substance/The level of expressed mRNA in the absence of chemical substance (yeast gene YGL104C): 1.3; The level of expressed mRNA in the presence of chemical substance/The level of expressed mRNA in the absence of chemical substance (yeast gene YGL167C): 1.4; The level of expressed mRNA in the presence of chemical substance/The level of expressed mRNA in the absence of chemical substance (yeast gene YGL255W): 0.5; The level of expressed mRNA in the presence of chemical substance/The level of expressed mRNA in the absence of chemical substance (yeast gene YGR055W): 0.7; The level of expressed mRNA in the presence of chemical substance/The level of expressed mRNA in the absence of chemical substance (yeast gene YGR065C): 0.7; The level of expressed mRNA in the presence of chemical substance/The level of expressed mRNA in the absence of chemical substance (yeast gene YGR082W): 0.8; The level of expressed mRNA in the presence of chemical substance/The level of expressed mRNA in the absence of chemical substance (yeast gene YGR096W): 1.0; The level of expressed mRNA in the presence of chemical substance/The level of expressed mRNA in the absence of chemical substance (yeast gene YGR138C): 0.7; The level of expressed mRNA in the presence of chemical substance/The level of expressed mRNA in the absence of chemical substance (yeast gene YGR191W): 0.8; The level of expressed mRNA in the presence of chemical substance/The level of expressed mRNA in the absence of chemical substance (yeast gene YGR197C): 1.9

From US8192962B2, “Processes for detecting toxic substances” (Daikin Industries, Ltd., priority 2001, dated 2012)
